Data: patent US6355799B1, “Substituted benzene compounds, process for their preparation, and herbicidal and defoliant compositions containing them” (ISK Americas Incorporated, priority 1997, dated 2002)

What was measured:
Type in all cases: in vivo
[1] = test system: upland rice (Oryza sp., var. Tebonnet, RICE); test: Post-emerge test, crop safety; settings: phytotoxicity rating 0-100 (0 no damage, 100 complete death), 14 days after application
Method in brief: (§1)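 Visual ratings on a 0-100 scale (0 no damage, 100 all plants dead) were taken at 14 days after treatment. Rates of 15-1000 g ai/ha in acetone, 187 l/ha, were sprayed onto soil one day after planting (pre-emerge) or onto 2-3 leaf plants with 0.25% v/v surfactant (post-emerge).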

[2] = test system: field corn (Zea mays L., var. Dekalb 535, CORN); test: Post-emerge test, crop safety; settings: phytotoxicity rating 0-100 (0 no damage, 100 complete death), 14 days after application
Method in brief: as §1

[3] = test system: redroot pigweed (Amaranthus retroflexus, AMARE); test: Pre-emerge test, greenhouse herbicide activity screening; settings: pre-emerge, rated 14 days after application, 0 = no damage, 100 = complete death
Method in brief: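 Plants grown in 10 cm pots of sandy loam mix received acetone-dissolved compounds through a moving flat-fan nozzle. Doses ranged from 15 to 1000 g ai/ha. Pre-emerge pots were seeded one day earlier, post-emerge pots 8–21 days earlier. Fourteen days on, each pot was graded 0–100 for damage.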

[4] = test system: johnsongrass (Sorghum halepense, SORHA); test: as above; settings: pre-emerge, rated 14 days after application, 0 = no damage, 100 = complete death
Method in brief: as §1

[5] = test system: green foxtail (Setaria viridis, SETVI); test: as above; settings: pre-emerge, rated 14 days after application, 0 = no damage, 100 = complete death
Method in brief: as §1

[6] = test system: velvetleaf (Abutilon theophrasti, ABUTH); test: as above; settings: pre-emerge, rated 14 days after application, 0 = no damage, 100 = complete death
Method in brief: as §1

[7] = test system: ivyleaf morningglory (Ipomoea hederacea, IPOHE); test: as above; settings: pre-emerge, rated 14 days after application, 0 = no damage, 100 = complete death
Method in brief: as §1

[8] = test system: common ragweed (Ambrosia artemisizfolia L., AMBEL); test: as above; settings: pre-emerge, rated 14 days after application, 0 = no damage, 100 = complete death
Method in brief: as §1

[9] = test system: lambsquarters (Chenopodium album, CHEAL); test: as above; settings: pre-emerge, rated 14 days after application, 0 = no damage, 100 = complete death
Method in brief: as §1

[10] = test system: sicklepod (Cassia obtusifolia, CASOB); test: as above; settings: pre-emerge, rated 14 days after application, 0 = no damage, 100 = complete death
Method in brief: as §1

[11] = test system: large crabgrass (Digitaria sanguinalis, DIGSA); test: as above; settings: pre-emerge, rated 14 days after application, 0 = no damage, 100 = complete death
Method in brief: as §1

[12] = test system: barnyardgrass (Echinochloa crus-galli, ECHCG); test: as above; settings: pre-emerge, rated 14 days after application, 0 = no damage, 100 = complete death
Method in brief: as §1

[13] = test system: upland rice (Oryza sp., var. Tebonnet, RICE); test: Pre-emerge test, crop safety; settings: pre-emerge, rated 14 days after application, 0 = no damage, 100 = complete death
Method in brief: (§2)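 Compounds in acetone were track-sprayed at 15-1000 g ai/ha (187 l/ha) on sandy loam pots: pre-emerge one day after seeding, post-emerge at 2-3 leaf stage with 0.25% v/v non-ionic surfactant. Phytotoxicity was rated 14 days later on a 0 (no damage) to 100 (complete death) scale.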

[14] = test system: field corn (Zea mays L., var. Dekalb 535, CORN); test: Pre-emerge test, crop safety; settings: pre-emerge, rated 14 days after application, 0 = no damage, 100 = complete death
Method in brief: as §2

[15] = test system: johnsongrass (Sorghum halepense, SORHA); test: Post-emerge test, greenhouse herbicide activity screening; settings: phytotoxicity rating 0-100 (0 no damage, 100 complete death), 14 days after application
Method in brief: (§3)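 Compounds in acetone were track-sprayed at 187 l/ha, 15–1000 g ai/ha, onto sandy loam pots. Pre-emerge seeds were sown one day before spraying, with surface watering afterwards. Post-emerge plants were at the 2–3 leaf stage and sprayed with 0.25% v/v non-ionic surfactant. Injury was rated 0–100 at 14 days.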

[16] = test system: redroot pigweed (Amaranthus retroflexus, AMARE); test: as above; settings: phytotoxicity rating 0-100 (0 no damage, 100 complete death), 14 days after application
Method in brief: as §3

[17] = test system: green foxtail (Setaria viridis, SETVI); test: as above; settings: phytotoxicity rating 0-100 (0 no damage, 100 complete death), 14 days after application
Method in brief: as §3

[18] = test system: velvetleaf (Abutilon theophrasti, ABUTH); test: as above; settings: phytotoxicity rating 0-100 (0 no damage, 100 complete death), 14 days after application
Method in brief: as §3

[19] = test system: ivyleaf morningglory (Ipomoea hederacea, IPOHE); test: as above; settings: phytotoxicity rating 0-100 (0 no damage, 100 complete death), 14 days after application
Method in brief: as §3

[20] = test system: common ragweed (Ambrosia artemisizfolia L., AMBEL); test: as above; settings: phytotoxicity rating 0-100 (0 no damage, 100 complete death), 14 days after application
Method in brief: as §3

[21] = test system: lambsquarters (Chenopodium album, CHEAL); test: as above; settings: phytotoxicity rating 0-100 (0 no damage, 100 complete death), 14 days after application
Method in brief: as §3

[22] = test system: sicklepod (Cassia obtusifolia, CASOB); test: as above; settings: phytotoxicity rating 0-100 (0 no damage, 100 complete death), 14 days after application
Method in brief: as §3

[23] = test system: large crabgrass (Digitaria sanguinalis, DIGSA); test: as above; settings: phytotoxicity rating 0-100 (0 no damage, 100 complete death), 14 days after application
Method in brief: as §3

[24] = test system: barnyardgrass (Echinochloa crus-galli, ECHCG); test: as above; settings: phytotoxicity rating 0-100 (0 no damage, 100 complete death), 14 days after application
Method in brief: as §3

Compound: COc1c(Cl)cc(F)c(-n2c(=O)cc(C(F)(F)F)n(C)c2=O)c1NC(=O)C(F)(F)F [2-10]
- Post-emerge Herbicidal Activity RICE (crop damage) ([1]; 63 g ai/ha): 0
- Post-emerge Herbicidal Activity RICE (crop damage) ([1]; 250 g ai/ha): 5
- Post-emerge Herbicidal Activity CORN (crop damage) ([2]; 63 g ai/ha): 5
- Post-emerge Herbicidal Activity CORN (crop damage) ([2]; 250 g ai/ha): 0
- Pre-emerge Herbicidal Activity AMARE (phytotoxicity rating, scale 0-100) ([3]; 63 g ai/ha): 50
- Pre-emerge Herbicidal Activity AMARE (phytotoxicity rating, scale 0-100) ([3]; 250 g ai/ha): 100
- Pre-emerge Herbicidal Activity SORHA (phytotoxicity rating, scale 0-100) ([4]; 63 g ai/ha): 0
- Pre-emerge Herbicidal Activity SORHA (phytotoxicity rating, scale 0-100) ([4]; 250 g ai/ha): 80
- Pre-emerge Herbicidal Activity SETVI (phytotoxicity rating, scale 0-100) ([5]; 63 g ai/ha): 40
- Pre-emerge Herbicidal Activity SETVI (phytotoxicity rating, scale 0-100) ([5]; 250 g ai/ha): 100
- Pre-emerge Herbicidal Activity ABUTH (phytotoxicity rating, scale 0-100) ([6]; 63 g ai/ha): 100
- Pre-emerge Herbicidal Activity ABUTH (phytotoxicity rating, scale 0-100) ([6]; 250 g ai/ha): 100
- Pre-emerge Herbicidal Activity IPOHE (phytotoxicity rating, scale 0-100) ([7]; 63 g ai/ha): 60
- Pre-emerge Herbicidal Activity IPOHE (phytotoxicity rating, scale 0-100) ([7]; 250 g ai/ha): 100
- Pre-emerge Herbicidal Activity AMBEL (phytotoxicity rating, scale 0-100) ([8]; 63 g ai/ha): 100
- Pre-emerge Herbicidal Activity AMBEL (phytotoxicity rating, scale 0-100) ([8]; 250 g ai/ha): 100
- Pre-emerge Herbicidal Activity CHEAL (phytotoxicity rating, scale 0-100) ([9]; 63 g ai/ha): 100
- Pre-emerge Herbicidal Activity CHEAL (phytotoxicity rating, scale 0-100) ([9]; 250 g ai/ha): 100
- Pre-emerge Herbicidal Activity CASOB (phytotoxicity rating, scale 0-100) ([10]; 63 g ai/ha): 50
- Pre-emerge Herbicidal Activity CASOB (phytotoxicity rating, scale 0-100) ([10]; 250 g ai/ha): 90
- Pre-emerge Herbicidal Activity DIGSA (phytotoxicity rating, scale 0-100) ([11]; 63 g ai/ha): 90
- Pre-emerge Herbicidal Activity DIGSA (phytotoxicity rating, scale 0-100) ([11]; 250 g ai/ha): 95
- Pre-emerge Herbicidal Activity ECHCG (phytotoxicity rating, scale 0-100) ([12]; 63 g ai/ha): 0
- Pre-emerge Herbicidal Activity ECHCG (phytotoxicity rating, scale 0-100) ([12]; 250 g ai/ha): 95
- Pre-emerge crop damage RICE (phytotoxicity rating, scale 0-100) ([13]; 63 g ai/ha): 0
- Pre-emerge crop damage RICE (phytotoxicity rating, scale 0-100) ([13]; 250 g ai/ha): 30
- Pre-emerge crop damage CORN (phytotoxicity rating, scale 0-100) ([14]; 63 g ai/ha): 0
- Pre-emerge crop damage CORN (phytotoxicity rating, scale 0-100) ([14]; 250 g ai/ha): 40
- Post-emerge Herbicidal Activity SORHA ([15]; 63 g ai/ha): 0
- Post-emerge Herbicidal Activity SORHA ([15]; 250 g ai/ha): 20
- Post-emerge Herbicidal Activity AMARE ([16]; 63 g ai/ha): 0
- Post-emerge Herbicidal Activity AMARE ([16]; 250 g ai/ha): 30
- Post-emerge Herbicidal Activity SETVI ([17]; 63 g ai/ha): 0
- Post-emerge Herbicidal Activity SETVI ([17]; 250 g ai/ha): 70
- Post-emerge Herbicidal Activity ABUTH ([18]; 63 g ai/ha): 95
- Post-emerge Herbicidal Activity ABUTH ([18]; 250 g ai/ha): 100
- Post-emerge Herbicidal Activity IPOHE ([19]; 63 g ai/ha): 60
- Post-emerge Herbicidal Activity IPOHE ([19]; 250 g ai/ha): 100
- Post-emerge Herbicidal Activity AMBEL ([20]; 63 g ai/ha): 0
- Post-emerge Herbicidal Activity AMBEL ([20]; 250 g ai/ha): 50
- Post-emerge Herbicidal Activity CHEAL ([21]; 63 g ai/ha): 50
- Post-emerge Herbicidal Activity CHEAL ([21]; 250 g ai/ha): 90
- Post-emerge Herbicidal Activity CASOB ([22]; 63 g ai/ha): 0
- Post-emerge Herbicidal Activity CASOB ([22]; 250 g ai/ha): 10
- Post-emerge Herbicidal Activity DIGSA ([23]; 63 g ai/ha): 0
- Post-emerge Herbicidal Activity DIGSA ([23]; 250 g ai/ha): 40
- Post-emerge Herbicidal Activity ECHCG ([24]; 63 g ai/ha): 0
- Post-emerge Herbicidal Activity ECHCG ([24]; 250 g ai/ha): 60
